What all share (format): biochemical
The target in experiment [1] is T1, recombinant human 17β-HSD1 (Homo sapiens, UniProt P14061).
T1 construct: made in house; host or cells: Sd9 (Sf9) insect cells, baculovirus (Bac to Bac Expression System)
T1 sequence (P14061 1-328): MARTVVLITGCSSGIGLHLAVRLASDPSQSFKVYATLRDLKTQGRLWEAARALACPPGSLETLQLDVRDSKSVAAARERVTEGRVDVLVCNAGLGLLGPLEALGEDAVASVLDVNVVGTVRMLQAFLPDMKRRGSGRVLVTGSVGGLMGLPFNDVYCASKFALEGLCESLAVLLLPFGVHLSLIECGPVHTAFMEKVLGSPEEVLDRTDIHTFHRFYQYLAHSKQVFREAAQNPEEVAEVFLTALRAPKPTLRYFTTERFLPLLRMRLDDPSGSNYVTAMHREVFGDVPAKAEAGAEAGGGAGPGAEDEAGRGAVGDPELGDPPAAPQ
Put plainly: Inhibition of recombinant human 17β-HSD1. The note with it: inhibitor 100 nM; 30 nM estrone, 1 mM NADPH, 30 min RT. The method, boiled down:
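Microsomes from Sf9 cells expressing human 17β-HSD1 (1 μg/ml) were incubated for 30 min at RT in 20 mM KH2PO4 pH 7.4 with 30 nM ³H-estrone, 1 mM NADPH and inhibitor at 1 μM or 0.1 μM (1% DMSO). Estrone-to-estradiol conversion was measured by radio-HPLC after TCA stop, and % inhibition was taken as 100 − % conversion.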

In experiment [2] the target is T2, recombinant human 17β-HSD2 (Homo sapiens, UniProt P37059).
T2 construct: made in house; host or cells: Sd9 (Sf9) insect cells, baculovirus (Bac to Bac Expression System)
T2 sequence (P37059 1-387): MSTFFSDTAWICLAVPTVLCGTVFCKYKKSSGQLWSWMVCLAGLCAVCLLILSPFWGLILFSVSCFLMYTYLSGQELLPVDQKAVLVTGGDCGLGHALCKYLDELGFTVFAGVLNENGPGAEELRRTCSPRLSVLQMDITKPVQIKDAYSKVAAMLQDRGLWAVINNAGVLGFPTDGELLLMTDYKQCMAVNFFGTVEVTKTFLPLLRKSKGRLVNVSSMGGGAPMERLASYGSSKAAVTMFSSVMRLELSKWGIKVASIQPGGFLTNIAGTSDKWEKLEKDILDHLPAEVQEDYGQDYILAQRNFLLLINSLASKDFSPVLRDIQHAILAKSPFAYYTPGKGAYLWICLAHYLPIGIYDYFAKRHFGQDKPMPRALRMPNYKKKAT
Put plainly: Inhibition of recombinant human 17β-HSD2. The note with it: inhibitor 1 μM; 50 nM estradiol, 1 mM NADH, 30 min RT. Summed up:
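Sf9 baculovirus-expressed enzyme membrane extract (4 μg/ml) incubated 30 min at RT in 20 mM KH2PO4 pH 8.5 with 50 nM estradiol (³H-tracer) and 1 mM NADH, inhibitor at 1 μM or 0.1 μM, 1% DMSO. TCA-stopped; estradiol-to-estrone conversion by radio-HPLC, % inhibition = 100 − % conversion.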

Experiment [3] has as its system HSD1 enzyme that is expressed in rabbit placenta tissue. Put plainly: Inhibition of E1 to E2 conversion in rabbit placenta tissue homogenate. Particulars: inhibitor 100 nM, 30 nM estrone, 30 min.

One may read the inhibition as the percentage by which the read-out fell short of the control. Regarding `C[C@]12CCC3c4ccc(F)cc4CCC3C1[C@H](CCC(=O)Nc1ncccc1F)C/C2=N/O` (stereo partly drawn) [Compound 150b, 3-((13S,15R,Z)-3-fluoro-17-(hydroxyimino)-13-methyl-7,8,9,11,12,13,14,15,16,17-decahydro-6H-cyclopenta[a]phenanthren-15-yl)-N-(3-fluoropyridin-2-yl)propanamide], the inhibition at 0.1 µM in experiment [1] worked out at 30%. The inhibition at 1 µM in experiment [2] turned out to be 6%. Further, the “Rabbit placenta inhibition % @100 nM” value in experiment [3] is on record as 3%.

`C[C@]12CCC3c4ccc(F)cc4CCC3C1[C@H](CCC(=O)Nc1ncc(F)cc1F)C/C2=N\O` (stereo partly drawn) [Compound 152, N-(3,5-difluoropyridin-2-yl)-3-((13S,15R,E)-3-fluoro-17-(hydroxyimino)-13-methyl-7,8,9,11,12,13,14,15,16,17-decahydro-6H-cyclopenta[a]phenanthren-15-yl)propanamide]: the inhibition at 0.1 µM in experiment [1] came out at 56%. Also, the inhibition at 1 µM in experiment [2] is 2%. In experiment [3], the “Rabbit placenta inhibition % @100 nM” value was 6%.

Consider `C[C@]12CCC3c4ccc(F)cc4CCC3C1[C@H](CCC(=O)Nc1ccc(N3CCOCC3)cn1)C/C2=N\O` (stereo partly drawn) [Compound 154, 3-((13S,15R,E)-3-fluoro-17-(hydroxyimino)-13-methyl-7,8,9,11,12,13,14,15,16,17-decahydro-6H-cyclopenta[a]phenanthren-15-yl)-N-(5-morpholinopyridin-2-yl)propanamide], for which the inhibition at 0.1 µM in experiment [1] amounted to 83%. For the same molecule, the inhibition at 1 µM in experiment [2] was 7%. The “Rabbit placenta inhibition % @100 nM” value in experiment [3] is on record as 38%.

In the case of `C[C@]12CCC3c4ccc(Cl)cc4CCC3C1[C@H](CCC(=O)Nc1cc(F)ccn1)C/C2=N\O` (stereo partly drawn) [Compound 156, 3-((13S,15R,E)-3-chloro-17-(hydroxyimino)-13-methyl-7,8,9,11,12,13,14,15,16,17-decahydro-6H-cyclopenta[a]phenanthren-15-yl)-N-(4-fluoropyridin-2-yl)propanamide], the inhibition at 0.1 µM in experiment [1] came to 47%. For the same molecule, the inhibition at 1 µM in experiment [2] was 10%. Further, the “Rabbit placenta inhibition % @100 nM” value in experiment [3] is 3%.

`C[C@]12CCC3c4ccccc4CCC3C1[C@H](CCC(=O)Nc1cc(F)ccn1)C/C2=N\O` (stereo partly drawn) [Compound 158, N-(4-fluoropyridin-2-yl)-3-((13S,15R,E)-17-(hydroxyimino)-13-methyl-7,8,9,11,12,13,14,15,16,17-decahydro-6H-cyclopenta[a]phenanthren-15-yl)propanamide]: the inhibition at 0.1 µM in experiment [1] was 36%. Besides, in experiment [2], the inhibition at 1 µM is 4%. Also, the “Rabbit placenta inhibition % @100 nM” value in experiment [3] is given as 12%.

Regarding `C[C@]12CCC3c4ccccc4CCC3C1[C@H](CCC(=O)Nc1ncccc1F)C/C2=N\O` (stereo partly drawn) [Compound 160, N-(3-fluoropyridin-2-yl)-3-((13S,15R,E)-17-(hydroxyimino)-13-methyl-7,8,9,11,12,13,14,15,16,17-decahydro-6H-cyclopenta[a]phenanthren-15-yl)propanamide], in experiment [1], the inhibition at 0.1 µM came out at 66%. Also, in experiment [2], the inhibition at 1 µM turned out to be 5%. In experiment [3], the “Rabbit placenta inhibition % @100 nM” value is 10%.

For `C[C@]12CCC3c4ccc(Cl)cc4CCC3C1[C@H](CCC(=O)Nc1ncccc1F)C/C2=N\O` (stereo partly drawn) [Compound 162, 3-((13S,15R,E)-3-chloro-17-(hydroxyimino)-13-methyl-7,8,9,11,12,13,14,15,16,17-decahydro-6H-cyclopenta[a]phenanthren-15-yl)-N-(3-fluoropyridin-2-yl)propanamide], the “HSD1 inhibition % @100 nM” value in experiment [1] is on record as 44%. For the same molecule, the “HSD2 inhibition % @1 μM” value in experiment [2] came to 10%. Besides, the “Rabbit placenta inhibition % @100 nM” value in experiment [3] is 7%.

As for `C[C@]12CCC3c4ccc(Cl)cc4CCC3C1[C@H](CCC(=O)Nc1ncc(F)cc1F)C/C2=N\O` (stereo partly drawn) [Compound 164, 3-((13S,15R,E)-3-chloro-17-(hydroxyimino)-13-methyl-7,8,9,11,12,13,14,15,16,17-decahydro-6H-cyclopenta[a]phenanthren-15-yl)-N-(3,5-difluoropyridin-2-yl)propanamide], the inhibition at 0.1 µM in experiment [1] amounted to 40%. Moreover, in experiment [2], the inhibition at 1 µM amounted to 11%. In experiment [3], the “Rabbit placenta inhibition % @100 nM” value is listed as 5%.

As to `C[C@]12CCC3c4ccccc4CCC3C1[C@H](CCC(=O)Nc1ncc(F)cc1F)C/C2=N\O` (stereo partly drawn) [Compound 166, N-(3,5-difluoropyridin-2-yl)-3-((13S,15R,E)-17-(hydroxyimino)-13-methyl-7,8,9,11,12,13,14,15,16,17-decahydro-6H-cyclopenta[a]phenanthren-15-yl)propanamide], the inhibition at 0.1 µM in experiment [1] was 56%. In experiment [2], the inhibition at 1 µM was 7%. Further, the “Rabbit placenta inhibition % @100 nM” value in experiment [3] amounted to 3%.

With `C[C@]12CCC3c4ccccc4CCC3C1[C@H](CCC(=O)Nc1cccc(F)n1)C/C2=N\O` (stereo partly drawn) [Compound 168, N-(6-fluoropyridin-2-yl)-3-((13S,15R,E)-17-(hydroxyimino)-13-methyl-7,8,9,11,12,13,14,15,16,17-decahydro-6H-cyclopenta[a]phenanthren-15-yl)propanamide], the inhibition at 0.1 µM in experiment [1] came out at 26%. Further, the inhibition at 1 µM in experiment [2] turned out to be 9%. Besides, the “Rabbit placenta inhibition % @100 nM” value in experiment [3] was 6%.

In the case of `C[C@]12CCC3c4ccc(Cl)cc4CCC3C1[C@H](CCC(=O)Nc1cccc(F)n1)C/C2=N\O` (stereo partly drawn) [Compound 170, 3-((13S,15R,E)-3-chloro-17-(hydroxyimino)-13-methyl-7,8,9,11,12,13,14,15,16,17-decahydro-6H-cyclopenta[a]phenanthren-15-yl)-N-(6-fluoropyridin-2-yl)propanamide], in experiment [1], the inhibition at 0.1 µM is 34%. The inhibition at 1 µM in experiment [2] came out at 12%. For the same molecule, the “Rabbit placenta inhibition % @100 nM” value in experiment [3] is given as 13%.

For the molecule `CN(C)C(=O)c1ccc(NC(=O)CC[C@@H]2C/C(=N\O)[C@@]3(C)CCC4c5ccc(Cl)cc5CCC4C23)nc1` (stereo partly drawn) [Compound 172, 6-(3-((13S,15R,E)-3-chloro-17-(hydroxyimino)-13-methyl-7,8,9,11,12,13,14,15,16,17-decahydro-6H-cyclopenta[a]phenanthren-15-yl)propanamido)-N,N-dimethylnicotinamide], the inhibition at 0.1 µM in experiment [1] stood at 45%. Also, the inhibition at 1 µM in experiment [2] came out at 9%. Besides, in experiment [3], the “Rabbit placenta inhibition % @100 nM” value amounted to 9%.

For `C[C@]12CCC3c4ccc(Cl)cc4CCC3C1[C@H](CCC(=O)Nc1cc3c([nH]c1=O)CCCC3)C/C2=N\O` (stereo partly drawn) [Compound 174, 3-((13S,15R,E)-3-chloro-17-(hydroxyimino)-13-methyl-7,8,9,11,12,13,14,15,16,17-decahydro-6H-cyclopenta[a]phenanthren-15-yl)-N-(2-oxo-1,2,5,6,7,8-hexahydroquinolin-3-yl)propanamide], in experiment [1], the inhibition at 0.1 µM came to 84%. Besides, the inhibition at 1 µM in experiment [2] worked out at 12%. Further, in experiment [3], the “Rabbit placenta inhibition % @100 nM” value amounted to 10%.

As to `CN(C)C(=O)c1ccc(NC(=O)CC[C@@H]2C/C(=N\O)[C@@]3(C)CCC4c5cccc(F)c5CCC4C23)nc1` (stereo partly drawn) [Compound 176, 6-(3-((13S,15R,E)-4-fluoro-17-(hydroxyimino)-13-methyl-7,8,9,11,12,13,14,15,16,17-decahydro-6H-cyclopenta[a]phenanthren-15-yl)propanamido)-N,N-dimethylnicotinamide], the inhibition at 0.1 µM in experiment [1] is 87%. In addition, the inhibition at 1 µM in experiment [2] turned out to be 5%. In experiment [3], the “Rabbit placenta inhibition % @100 nM” value was determined as 34%.

For the origin of these results see US20240309043A1, “THERAPEUTICALLY ACTIVE STEROIDAL DERIVATIVES” (Organon R&D Finland Ltd., priority 2017, published 2024).
